The subject of data set [1] is panel of human tumor cell lines (BxPC3, HCT-15, MCF-7, A431, A549, A375). As to the kind of experiment: MTT cytotoxicity, mean over panel of human tumor cell lines. Type of data set: cell-based. As for the experimental part: (§1) The cytotoxic activity of the complexes and of the uncoordinated ligands was evaluated by the MTT test on a panel of human tumor cell lines containing examples of pancreatic (BxPC3), colorectal (HCT-15), breast (MCF-7), cervical (A431), and lung (A549) cancers as well as of melanoma (A375). For comparison purposes, the cytotoxicity of cisplatin was evaluated under the same experimental conditions.
(§2) The growth inhibitory effect toward tumor cells was evaluated by means of the MTT assay. Briefly, (3–8) × 10^3 cells/well, dependent upon the growth characteristics of the cell line, were seeded in 96-well microplates in growth medium (100 μL). After 24 h, the medium was removed and replaced with fresh medium containing the compound to be studied at the appropriate concentration. Triplicate cultures were established for each treatment. After 24, 48, or 72 h, each well was treated with 10 μL of a 5 mg/mL MTT saline solution and, after 5 h of incubation, 100 μL of a sodium dodecylsulfate (SDS) solution in 0.01 M HCl was added. After an overnight incubation, cell growth inhibition was detected by measuring the absorbance of each well at 570 nm using a Bio-Rad 680 microplate reader. The mean absorbance for each drug dose was expressed as a percentage of the control, untreated well absorbance and plotted vs drug concentration. The IC50 values, the drug concentrations that decrease the mean absorbance at 570 nm to 50% of that of untreated control wells, were calculated from the dose–response curves with the four-parameter logistic model (4PL). The final value is the mean ± S.D. of at least three independent experiments performed in triplicate.

A short description of data set [2]: Stability in physiological saline by mass spectrometry. Type of data set: physicochemical. Conditions: 0.9% NaCl. As for the experimental part:
Ten indole carboxylic acid Pt(IV) complexes with IAA (indole-3-acetic acid, 1A–5A) and IPA (indole-3-propionic acid, 1P–5P) were synthesized and the structures are depicted in Fig. 3. The monocarboxylato complexes 1A and 1P were prepared by reacting oxoplatin, c,c,t-[Pt(NH3)2Cl2(OH)2], with 0.8 eq. of the activated NHS-ester of the corresponding indole carboxylic acid. The dicarboxylato complexes with two indole acids in axial position (2A and 2P) were obtained using an excess of the NHS-ester activated acid (20 eq.), since the second hydroxo group of oxoplatin is much less reactive than the first one. The unsymmetrically substituted complexes (3A–5A and 3P–5P) were prepared by reaction of the monocarboxylate complexes 1A and 1P with the corresponding anhydrides. We chose three different anhydrides (benzoic, acetic and succinic anhydride) to vary the lipophilicity of the resulting Pt(IV) complexes. All the synthesized Pt(IV) complexes were characterized using elemental analysis, ESI-MS, FT-IR, ^1H and ^195Pt NMR spectroscopy. The purity of the complexes has been assessed through elemental analysis and–where solubility was not an issue–by high performance liquid chromatography (HPLC). The dicarboxylato complexes are poorly soluble in organic solvents. The proton NMR spectra of the complexes in DMSO-d6 show the typical signal of the NH3 protons which is a multiplet at around 6 ppm for the monocarboxylato complexes 1P and 1A (typical ^1JNH and ^2JPtH values around 50 Hz) while it is a broad signal around 6.5 ppm for the bis-substituted complexes (2–5A and 2–5P, Supplementary Information)[44]. The mass spectra of the complexes show a peak in the negative mode with the typical platinum isotope pattern corresponding to M − H^− or M + Cl^−. Stability studies on representative examples of the complexes (1A, 1P, 3A and 3P) via mass spectrometry confirm that the complexes are stable in physiological saline (0.9% NaCl) for at least 48 h (Supplementary Information).
Complexes 1A, 1P, 3A and 3P where dissolved in a minimum amount of DMF and diluted 1:20 with physiological saline (0.9% NaCl). Mass spectra were recorded at t = 0 and after 48 hours.

The subject of data set [3] is MCF-7 breast carcinoma cells. The data set can be described thus: MTT cytotoxicity test, MCF-7. It counts as cell-based, human. Particulars: ± S.D. Here is the method:
as §1
(§3) Cisplatin was dissolved in 0.9% NaCl solution.
(§4) Human breast (MCF-7), colon (HCT-15), lung (A549) and pancreatic (BxPC3) carcinoma cell lines together with melanoma (A375) cells were obtained from American Type Culture Collection (ATCC, Rockville, MD). The human ovarian cancer cell line 2008 and its cisplatin resistant variant, C13*, were kindly provided by Prof. G. Marverti (Department of Biomedical Science of Modena University, Italy). Human cervical carcinoma (A431) cells were kindly provided by Prof. F. Zunino (Division of Experimental Oncology B, Istituto Nazionale dei Tumori, Milan, Italy). Cell lines were maintained in the logarithmic phase at 37 °C in a 5% carbon dioxide atmosphere using the following culture media containing 10% fetal calf serum (Euroclone, Milan, Italy), antibiotics (50 units/mL penicillin and 50 μg/mL streptomycin) and 2 mM L-glutamine: (i) RPMI-1640 medium (Euroclone) for 2008, C13*, MCF-7, HCT-15, A431 and BxPC3 cells, (ii) F-12 HAM’S (Sigma Chemical Co.) for A549 cells, iii) DMEM (Sigma Chemical Co.) for A375 cells.
as §2
A general note: Tetrazolium dyes change colour on reduction, which living cells bring about.

Data set [4] has as its system C13* cisplatin-resistant ovarian cancer cells. The data set can be described thus: MTT cytotoxicity test, cisplatin-resistant C13*. Type of data set: cell-based, human. As for the experimental part:
The cytotoxic properties of the complexes were also evaluated in a pair of tumor cell lines suitably selected for their sensitivity and resistance to cisplatin (adenocarcinoma cells 2008/C13^*). Cross-resistance profiles were evaluated by means of the resistance factor (RF), defined as the ratio between IC50 values calculated for the resistant cells and those obtained with the sensitive ones (Table 2). The phenomenon of cisplatin resistance is multifactorial in nature.
as §3, §4, §2

In data set [5] the test system is A431 cervical carcinoma cells. As to the kind of experiment: MTT cytotoxicity test, A431. It counts as cell-based, human. Particulars: ± S.D. Here is the method: as §1, §3, §4, §2
Data set [6] has as its system A549 lung carcinoma cells. As to the kind of experiment: cells. Conditions: A549, 72 h. As for the experimental part:
as §1, §3, §4, §2

Data set [7] relates to BxPC3 pancreatic carcinoma cells. As to the kind of experiment: MTT cytotoxicity test, BxPC3. Type of data set: cell-based, human. Particulars: BxPC3, 72 h, MTT, ± S.D. Here is the method:
as §1, §3, §4, §2

The test system of data set [8] is A375 melanoma cells. As to the kind of experiment: Cellular accumulation of Pt (GF-AAS). Particulars: A375, 1.5 and 3 μM, 6 and 24 h. It counts as cell-based, human.
Data set [9] in a line: Log P octanol/water, shake flask method with ICP-MS. It counts as physicochemical. Particulars: n-octanol / 0.9% NaCl water, Pt by ICP-MS. Here is the method: Partition coefficients (logP values) for octanol/water partition were determined in order to examine whether a correlation exists between lipophilicity and accumulation into cells. The log P values obtained (Table 3) give the trend in lipophilicity as mono indole acid complex < succinate complex < acetate complex < bis indole acid complex < benzoate complex for both the IAA and the IPA series.
The logP values of the Pt(IV) compounds were determined using the shake flask method. The respective Pt(IV) complex was dissolved in 0.9% NaCl (w/v) ultrapure water (presaturated with n-octanol). The solutions were sonicated and filtered to remove undissolved Pt(IV) compounds. The initial Pt concentrations were determined by ICP-MS. Subsequently, the Pt(IV) solutions were added to an equal volume of n-octanol (presaturated with 0.9% NaCl (w/v) ultrapure water). The heterogeneous mixtures were shaken vigorously for 30 min before centrifuging at 4000 rpm for 30 min to achieve phase separation. The final Pt concentration in the aqueous phase was determined again by ICP-MS. The logarithm of the ratio of Pt concentrations in the organic and aqueous phases was calculated to determine the logP values. All experiments were done in duplicate.

Data set [10] concerns HCT-15 colon carcinoma cells. The data set can be described thus: MTT cytotoxicity test, HCT-15. Conditions: HCT-15, 72 h, MTT, ± S.D. It counts as cell-based, human. As for the experimental part:
as §1, §3, §4, §2

Data set [11] has as its system A375 melanoma cells. The data set can be described thus: MTT cytotoxicity test, A375. Type of data set: cell-based, human. Conditions: ± S.D. As for the experimental part: as §1, §3, §4, §2
For data set [12], the system named is 2008 ovarian cancer cells. As to the kind of experiment: MTT cytotoxicity test, cisplatin-sensitive 2008. It counts as cell-based, human. Particulars: 2008 cisplatin-sensitive, 72 h, ± S.D. Here is the method: The cytotoxic properties of the complexes were also evaluated in a pair of tumor cell lines suitably selected for their sensitivity and resistance to cisplatin (adenocarcinoma cells 2008/C13^*). Cross-resistance profiles were evaluated by means of the resistance factor (RF), defined as the ratio between IC50 values calculated for the resistant cells and those obtained with the sensitive ones (Table 2). The phenomenon of cisplatin resistance is multifactorial in nature. Nevertheless, the main molecular mechanisms involved in drug resistance in C13* cancer cells have largely been identified. Indeed, in this cell line resistance is correlated to high cellular glutathione and thioredoxin reductase levels, reduced cellular drug uptake and enhanced repair of DNA damage. […] The RF values calculated for all derivatives were six- to nine-fold lower than that of cisplatin, clearly indicating the absence of cross-resistance.
as §3
Triplicate cultures were established for each treatment.

The test system of data set [13] is A375 cells. The data set can be described thus: ROS production (CM-H2DCFDA probe). It counts as cell-based, human. Conditions: A375, 12.5 μM, compared with antimycin positive control. As for the experimental part: ROS are products of normal cell metabolism but their levels can be increased upon exposure to toxic agents or interference with the cellular redox network. […] Consequently, cellular ROS levels upon treatment with equal doses (12.5 μM) of the different platinum complexes were monitored in A375 cancer cells by using the peroxide-sensitive fluorescent probe CM-H2DCFDA (5-(and-6)-chloromethyl-2′,7′-dichlorodihydrofluorescein diacetate, acetyl ester). Antimycin, a classical inhibitor of the mitochondrial respiratory chain at the level of complex III, was used as a positive control.
Figure 8 ROS production in A375 cells. Cells were preincubated in PBS/10 mM glucose medium for 20 min at 37 °C in the presence of 10 μM CM-DCFDA and then treated with equimolar doses (12.5 μM) of indole propionic acid Pt(IV) derivatives (panel A) or indole acetic acid Pt(IV) derivatives (panel B). The fluorescence of DCF was measured.
The production of ROS was measured in A375 cells (10^4 per well) grown for 24 h in 96-well plates in DMEM medium without phenol red (Sigma Chemical Co.). Cells were then washed with PBS and loaded with 10 μM 5-(and-6)-chloromethyl-2′,7′-dichlorodihydrofluorescein diacetate, acetyl ester (CM–H2DCFDA) (Molecular Probes-Invitrogen) for 25 min in the dark. Afterwards, cells were washed with PBS and incubated with increasing concentrations of the tested complexes. The fluorescence increase was estimated with a plate reader (Fluoroskan Ascent FL, Labsystem, Finland) at 485 (excitation) and 527 nm (emission). Antimycin (3 μM, Sigma Chemical Co.), a potent inhibitor of Complex III in the electron transport chain, was used as positive control.

Take `[NH2][Pt]([NH2])([Cl])([Cl])([O]C(=O)CCc1c[nH]c2ccccc12)[O]C(=O)c1ccccc1` [Complex 3P]: the IC50 amounted to 2600 nM in data set [1] (mean over the six cell lines of Table 1, 72 h); 2280 ± 460 nM in [3] (MCF-7, 72 h); 1470 ± 680 nM in data set [4] (C13* cisplatin-resistant, 72 h, MTT, ± S.D.); 2000 ± 320 nM in [5] (A431, 72 h); 960 ± 60 nM in data set [6] (MTT, ± S.D.); 2920 ± 1130 nM in [7]. For the same compound, the IC50 in [10] amounted to 5940 ± 630 nM; in data set [11] (A375, 72 h), 1510 ± 1250 nM; in data set [12] it was 4790 ± 690 nM. Further, in data set [2], the “stable in physiological saline” value is “at least 48 h”. Besides, in data set [4] (IC50 resistant (C13*) / parent line (2008)), the “RF (resistance factor)” value came out at 0.3. Besides, the “cellular platinum accumulation (in words)” value in [8] was “internalized most efficiently”. In data set [9], the “Log P (octanol/water)” value was −0.028 ± 0.07.
In the case of `O=C(O)Cc1c[nH]c2ccccc12` [IAA, indole-3-acetic acid, reference compound], the “cytotoxic effect (in words)” value in [1] (free ligands) is listed as “did not elicit any significant cytotoxic effect”. In addition, the IC50 in data set [3] (Homo sapiens, MCF7, MCF-7, 72 h) is above 50000 nM; in [5] (Homo sapiens, A-431, A431, 72 h) it was above 50000 nM; in data set [6] (Homo sapiens), above 50000 nM; in [7] (Homo sapiens, BXPC-3), above 50000 nM; in [10] (Homo sapiens), above 50000 nM; in data set [11] (Homo sapiens, A-375, A375, 72 h) it was above 50000 nM. Also, the “ROS production (in words)” value in data set [13] was “no effect on cellular basal ROS levels”.

Broadly, the IC50 is the concentration that inhibits the measured activity by half.

The values are drawn from article PMC4941645, “Oxidative Stress Induced by Pt(IV) Pro-drugs Based on the Cisplatin Scaffold and Indole Carboxylic Acids in Axial Position” (Scientific Reports, 2016).
